This is an account of results in US20180164317A1, “METHOD FOR STRATIFICATION OF MELANOMA PATIENTS BY DETERMINATION OF OXYGEN CONSUMPTION, PPARGC1A, PPARGC1B AND MITF LEVELS” (Bayer Pharma Aktiengesellschaft, priority 2015, published 2018).

Experiment [1] relates to A-431. Briefly: GI50 determination, cell viability (Alamar Blue or Cell Titer Glo). The conditions noted are these: Homo sapiens; A-431 cells; cell viability measured at days 3, 5 and 7; triplicate experiments. The class given is cell-based. The method, then:
(§1) COLO-792, SK-MEL-2, SK-MEL-28, IPC-298 and MEL-HO cells were cultured in RPMI media supplemented with 10% heat-inactivated and filtered FCS (hFCS). CHL-1, Hs852.T, G-361, RPMI-7951 and A-431 cells were cultured in DMEM media supplemented with 10% hFCS. HMCB cells were grown in MEM Earle's media containing 10% hFCS, 1 mM NaPyruvate, non-essential amino acids and 1 mM HEPES. Penicillin (at 50 I.U./mL), streptomycin (at 50 μg/mL), and L-glutamine (at 2 mM) or stable glutamine (supplied with the media) were additional ingredients in all culture media. All cells were grown in an incubator at 37° C. with 5% carbon dioxide.
(§2) Cells were counted and distributed to 96-well plates, with 1000-5000 cells per well. Each plate also contained wells with media alone for background measurements. Appropriate dilutions of BAY 123 or JQ1 were made in media in a titration series. When adherent cells were fully attached, media was removed and replaced with media containing BAY 123, JQ1, or DMSO as a control. Alternatively, appropriate volumes of BAY 123, JQ1 or DMSO were added to media using a dispenser (HP D300, Tecan).
(§3) Cell viability was measured at days 3, 5, and 7, with Alamar Blue (LifeTechnologies) staining and fluorescence detection (excitation 530nm, emission 590nm) in a microplate reader. Alternatively, Cell Titer Glo (Promega) was used, followed by luminescence detection. GI50 values were calculated from triplicate experiments using GraphPad prism software, using curves from plots of fluorescence or luminescence intensity vs. BAY 123 or JQ1 concentration in each cell line. […] Cell lines with a GI50 below 600 nM were defined as sensitive to BET inhibition.
In general terms: The colour change of resazurin is a common sign of viable cells or microbes.

For experiment [2], the system named is CHL-1. The experiment is described as above. The class given is cell-based. To be noted: Homo sapiens; CHL-1 cells; cell viability measured at days 3, 5 and 7; triplicate experiments. The procedure: as §1, §2, §3
Experiment [3] deals with COLO-792. The description is as above. The class given is cell-based. To be noted: Homo sapiens; COLO-792 cells; cell viability measured at days 3, 5 and 7; triplicate experiments. The procedure:
as §1, §2, §3

The subject of experiment [4] is G-361. Described as above. The class given is cell-based. The conditions noted are these: Homo sapiens; G-361 cells; cell viability measured at days 3, 5 and 7; triplicate experiments. The procedure:
as §1, §2, §3

Experiment [5] relates to HMCB. Described as above. It counts as cell-based. To be noted: Homo sapiens; HMCB cells; cell viability measured at days 3, 5 and 7; triplicate experiments. The procedure: as §1, §2, §3
In experiment [6] the test system is Hs 852.T. The description is as above. The class given is cell-based. To be noted: Homo sapiens; Hs 852.T cells; cell viability measured at days 3, 5 and 7; triplicate experiments. The method, then: as §1, §2, §3
The subject of experiment [7] is IPC-298. Described as above. The class given is cell-based. The conditions noted are these: Homo sapiens; IPC-298 cells; cell viability measured at days 3, 5 and 7; triplicate experiments. The procedure: as §1, §2, §3
Experiment [8] has as its system MEL-HO. The description is as above. To be noted: Homo sapiens; MEL-HO cells; cell viability measured at days 3, 5 and 7; triplicate experiments. The class given is cell-based. The procedure:
as §1, §2, §3

The test system of experiment [9] is RPMI-7951. The description is as above. It counts as cell-based. The conditions noted are these: Homo sapiens; RPMI-7951 cells; cell viability measured at days 3, 5 and 7; triplicate experiments. The procedure:
as §1, §2, §3

In experiment [10] the test system is SK-MEL-28. The description is as above. The conditions noted are these: Homo sapiens; SK-MEL-28 cells; cell viability measured at days 3, 5 and 7; triplicate experiments. It counts as cell-based. The method, then:
as §1, §2, §3

In experiment [11] the test system is SK-MEL-2. The experiment is described as above. The class given is cell-based. To be noted: Homo sapiens; SK-MEL-2 cells; cell viability measured at days 3, 5 and 7; triplicate experiments. The procedure:
as §1, §2, §3

The test system of experiment [12] is COLO-792. As to the kind of experiment: Basal oxygen consumption rate (OCR), XF96 extracellular flux analyzer. To be noted: COLO-792 cells; FIG. 4. It counts as cell-based, human.
The subject of experiment [13] is CHL-1. The description is as above. The conditions noted are these: CHL-1 cells; 1 μM, 20 h pre-incubation; FIG. 4. It counts as cell-based, human. The method, then:
(§4) The OCR in G-361, CHL-1, RPMI-7951 and SK-MEL-2 melanoma cells was measured using the XF96 extracellular flux analyzer (Seahorse Bioscience) under standard conditions and after pre-incubation with 1 μM BAY 123 or JQ1 inhibitor for 20 h. Baseline mitochondrial function and mitochondrial stress response were measured by OCR using the XF Mito Stress Test Kit with an XF96 extracellular flux analyzer (Seahorse Bioscience). […] The drug injection ports of the XF96 Assay Cartridge were loaded with assay reagents at a final concentration of 1 μM oligomycin (ATP synthase inhibitor), 0.5 μM FCCP (ionophore and mitochondrial uncoupler which disrupts proton gradient and ATP synthesis), 1 μM Rotenone (mitochondrial complex I inhibitor) and 1 μM Antimycin A (mitochondrial complex III inhibitor).
(§5) Briefly, cells treated with 1 μM BAY 123 or JQ1 inhibitor for 20 h were seeded in quadruplicate at equal densities (20,000-30,000 cells/well) into XF96 tissue culture plates (Seahorse Bioscience). Cell culture medium was changed 12 hours after cell seeding into unbuffered DMEM (8.3 g/l DMEM [Sigma], 2 mM Glutamax [Invitrogen] 5 mM Glucose [Sigma], 1.85 g/l NaCl [Sigma], adjusted to pH 7.4 with NaOH). Real-time measurements of OCR in […] in culture medium were conducted. OCR was measured over time at baseline and following consecutive injections of 1 μM Oligomycin, 0.5 μM FCCP and a mix of 1 μM Rotenone+1 μM Antimycin A. The basal mitochondrial OCR was calculated. The OCR values were normalized to cell numbers plated. To this end, the cells were stained using Cyquant (Life technologies) and fluorescence measurements were made using a microplate reader with excitation at 485 nm and emission detection at 530 nm [Tecan].

The subject of experiment [14] is G-361. Described as above. It counts as cell-based, human. To be noted: G-361 cells; 1 μM, 20 h pre-incubation; FIG. 4. The method, then:
as §4, §5

For experiment [15], the system named is SK-MEL-2. The description is as above. The class given is cell-based, human. The conditions noted are these: SK-MEL-2 cells; 1 μM, 20 h pre-incubation; FIG. 4. The procedure:
as §4, §5

Experiment [16] deals with melanoma cell lines (G-361, CHL-1, RPMI-7951, SK-MEL-2). As to the kind of experiment: Basal OCR, marker positive versus negative melanoma cell lines, XF96 analyzer. The class given is cell-based, human. To be noted: 1 μM, 20 h treatment. The method, then:
as §4
Briefly, cells treated with 1 μM BAY 123 or JQ1 inhibitor for 20 h were seeded in quadruplicate at equal densities (20,000-30,000 cells/well) into XF96 tissue culture plates (Seahorse Bioscience). […] OCR was measured over time at baseline and following consecutive injections of 1 μM Oligomycin, 0.5 μM FCCP and a mix of 1 μM Rotenone+1 μM Antimycin A. The basal mitochondrial OCR was calculated. […] To this end, the cells were stained using Cyquant (Life technologies) and fluorescence measurements were made using a microplate reader with excitation at 485 nm and emission detection at 530 nm [Tecan].

Consider `Cc1sc2c(c1C)C(c1ccc(Cl)cc1)=NC(CC(=O)OC(C)(C)C)c1nnc(C)n1-2` (racemic) [JQ1, [(R,S)-4-(4-Chlorophenyl)-2,3,9-trimethyl-6H-1-thia-5,7,8,9a-tetraaza-cyclopenta[e]azulen-6-yl]-acetic acid tert-butyl ester], for which the 50% growth inhibitory concentration (GI50) was found to be 720 nM in [1]; 60 nM in experiment [2]; 50 nM in experiment [3]; 240 nM in [4]; 330 nM in experiment [5]; 7570 nM in [6]. Also, the GI50 in experiment [7] is 60 nM; in experiment [8] it was 190 nM; in experiment [9] it was 1460 nM; in [10] it was 1760 nM; in experiment [11], > 20000 nM. Further, the “basal OCR with versus without treatment” value in experiment [12], in [13], in experiment [14] and in [15] was “Reduction of basal OCR” in each case. Besides, in experiment [16], the “decrease of basal OCR in PPARGC1A, PPARGC1B, MITF positive melanoma (G-361, CHL-1) compared to negative melanoma cell lines (RPMI-7951, SK-MEL-2)” value is listed as “decreased more dramatically”.
As for `CNC(=O)N1N=C(c2ccc(N3CCN(C)CC3)cc2)c2cc(OC)c(OC)cc2C[C@@H]1C` [BAY 123, (4S)-7,8-dimethoxy-N,4-dimethyl-1-[4-(4-methylpiperazin-1-yl)phenyl]-4,5-dihydro-3H-2,3-benzodiazepine-3-carboxamide], the GI50 was found to be 930 nM in [1]; 70 nM in [2]; 80 nM in experiment [3]; 250 nM in [4]; 570 nM in [5]; 4440 nM in experiment [6]. In addition, the 50% growth inhibitory concentration (GI50) in experiment [7] was 150 nM; in [8], 470 nM; in experiment [9] it was 2180 nM; in [10], 1260 nM; in [11], > 20000 nM. The “basal OCR with versus without treatment” value in experiment [12], in experiment [13], in experiment [14] and in [15] was “Reduction of basal OCR” each time. In [16], the “decrease of basal OCR in PPARGC1A, PPARGC1B, MITF positive melanoma (G-361, CHL-1) compared to negative melanoma cell lines (RPMI-7951, SK-MEL-2)” value was “decreased more dramatically”.

One may read the GI50 as the concentration giving 50% growth inhibition.
